Data published in paper PMC4540187 (Cell Death & Disease, 2014).

Legend:
Experiment in all cases: […]-ATP peptide kinase assay with TLC, purified kinase
Assay type in all cases: biochemical
[1] = biological target: Btk (Homo sapiens, UniProt Q06187)
[2] = biological target: Src (Homo sapiens, UniProt P12931)
[3] = biological target: T1, Itk (Homo sapiens, UniProt Q08881)
T1 sequence (Q08881 1-620): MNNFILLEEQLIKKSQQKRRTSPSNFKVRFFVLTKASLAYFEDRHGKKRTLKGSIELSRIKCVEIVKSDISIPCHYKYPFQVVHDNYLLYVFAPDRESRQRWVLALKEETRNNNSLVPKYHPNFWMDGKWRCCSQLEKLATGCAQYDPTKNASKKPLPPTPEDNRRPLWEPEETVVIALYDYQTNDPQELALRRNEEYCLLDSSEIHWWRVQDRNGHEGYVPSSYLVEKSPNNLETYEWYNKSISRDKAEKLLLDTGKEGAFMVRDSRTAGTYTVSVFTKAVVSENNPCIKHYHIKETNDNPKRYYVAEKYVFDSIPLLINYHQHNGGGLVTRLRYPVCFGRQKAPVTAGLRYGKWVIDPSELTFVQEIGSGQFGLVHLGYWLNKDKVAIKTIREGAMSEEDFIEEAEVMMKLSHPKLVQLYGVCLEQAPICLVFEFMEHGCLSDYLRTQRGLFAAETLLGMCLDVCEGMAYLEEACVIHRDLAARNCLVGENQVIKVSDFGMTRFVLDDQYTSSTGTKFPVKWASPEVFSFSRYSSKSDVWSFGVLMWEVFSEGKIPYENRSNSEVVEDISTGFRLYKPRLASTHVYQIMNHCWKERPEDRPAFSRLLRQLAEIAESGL

Sequence of Src (P12931 2-536): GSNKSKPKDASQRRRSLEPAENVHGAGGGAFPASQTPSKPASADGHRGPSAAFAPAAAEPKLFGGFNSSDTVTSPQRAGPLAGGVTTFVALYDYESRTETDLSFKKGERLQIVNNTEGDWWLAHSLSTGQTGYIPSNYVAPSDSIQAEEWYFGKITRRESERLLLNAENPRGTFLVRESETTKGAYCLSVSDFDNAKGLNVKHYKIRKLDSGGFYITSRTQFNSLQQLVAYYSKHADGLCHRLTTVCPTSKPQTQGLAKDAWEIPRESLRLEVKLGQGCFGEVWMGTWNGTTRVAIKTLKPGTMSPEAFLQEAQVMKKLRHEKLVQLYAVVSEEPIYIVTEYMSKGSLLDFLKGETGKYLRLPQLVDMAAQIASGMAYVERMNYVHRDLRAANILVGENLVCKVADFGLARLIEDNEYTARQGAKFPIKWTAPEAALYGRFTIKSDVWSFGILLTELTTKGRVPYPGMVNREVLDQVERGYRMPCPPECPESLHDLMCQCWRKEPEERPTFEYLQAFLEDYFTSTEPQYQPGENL
Sequence of Btk (Q06187 2-659): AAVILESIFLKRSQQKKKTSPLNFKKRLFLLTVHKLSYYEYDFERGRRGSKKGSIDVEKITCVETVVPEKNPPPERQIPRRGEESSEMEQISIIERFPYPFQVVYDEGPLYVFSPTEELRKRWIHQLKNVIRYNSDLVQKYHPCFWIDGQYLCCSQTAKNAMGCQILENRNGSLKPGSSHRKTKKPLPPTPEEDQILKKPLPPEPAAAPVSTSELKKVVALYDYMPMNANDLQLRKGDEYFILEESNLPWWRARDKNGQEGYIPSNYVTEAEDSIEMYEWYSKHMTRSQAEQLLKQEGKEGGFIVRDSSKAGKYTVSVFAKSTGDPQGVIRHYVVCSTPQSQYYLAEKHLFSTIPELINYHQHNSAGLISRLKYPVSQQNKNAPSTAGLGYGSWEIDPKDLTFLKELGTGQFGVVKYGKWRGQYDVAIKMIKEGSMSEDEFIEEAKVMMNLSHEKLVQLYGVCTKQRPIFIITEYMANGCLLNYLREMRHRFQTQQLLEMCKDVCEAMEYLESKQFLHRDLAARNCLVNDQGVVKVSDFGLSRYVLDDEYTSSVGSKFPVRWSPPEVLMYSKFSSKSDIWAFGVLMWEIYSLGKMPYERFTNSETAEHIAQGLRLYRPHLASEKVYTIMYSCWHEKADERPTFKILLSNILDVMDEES

IC50 [1]: ~50 nM
IC50 [2]: ~5000 nM
Compound: CC(C)Cc1nc2cc3c(cc2[nH]c1=O)nc(NC(=O)c1ccc(-c2ccncc2)cc1)n3CCCN1CCCCC1 [CTN06, N-(7-isobutyl-6-oxo-1-(3-(piperidin-1-yl)propyl)-5,6-dihydro-1H-imidazo[4,5-g]quinoxalin-2-yl)-4-(pyridin-4-yl)benzamide]
33P-ATP peptide kinase assay with TLC, purified kinase [3]: CTN06 appears to have the strongest activity toward Btk and Etk, followed by Itk, another member in the same family
